{
  "source": "patent US20010011128A1",
  "about": "“Hex II tumor-specific promoter and uses thereof” (priority 1996, published 2001)",
  "key": {"[1]": {"experiment": "MTT cell viability assay, pΔE1sp1B Hex TK transfectants treated with gancyclovir", "type": "cell-based", "details": "GCV 10 or 25 ug/ml, controls GCV alone or plasmid only", "method": "Cells in the logarithmic phase of growth were resuspended at a concentration of 2×10^5 cells/ml. 2 ml/well were plated in 6-well plates. Plates were incubated for 24 h at 37° C. in 5% CO2. Subsequently, cells were transfected with the pΔE1sp1B Hex TK plasmid as described above. […] Each condition was done in triplicate. Cells survival was calculated in the treated population as a percentage of controls. Controls are cells transfected with the plasmid alone or treated with the drug alone. MTT assays was performed two days following treatment. The formazan crystals were dissolved in […] (Fisher) and glycine buffer (0.1 M glycine-0.1 M NaCl, pH 10.5). The formazan product formed by viable cells was quantitated by measuring the absorbance at a wavelength of 570 nm."}, "[2]": {"tested_on": "H661 non-small cell lung carcinoma cells", "experiment": "CAT reporter gene assay, Hex II promoter activation (first series)", "type": "cell-based, human", "details": "treatment of the transfectants", "method": "Transient transfections were performed using lipofectamine according to the manufacturer's recommendations (GIBCO-BRL). Cells were plated the day before transfection to give 60% confluency in 6-well plates. The p1583/+33MUC1.CAT or pHex4557.CAT vectors were transfected along with pSV2lacZ to determine promoter activity. 1 ug of each plasmid were used for each well. All conditions assayed were done in duplicate. The plasmids pRSV.CAT and promoterless pCAT were used as positive and negative controls, respectively. Cells extracts were prepared 48 hours after transfection and β-galactosidase activity was assayed to compensate for variations in transfection efficiency. CAT activity was determined from 75-100 ug of proteins. The reaction was carried out with 0.1 uCi of ^14C-labeled chloramphenicol in a 100 ul reaction at 37° C. for 4 hrs."}, "[3]": {"tested_on": "HK II promoter in NCI-H661 cells", "experiment": "Regulation of HK II promoter (pHexII4557 CAT) by glucose, insulin, glucagon", "type": "cell-based, human", "details": "NCI-H661 transfected with pHexII4557 CAT; 25 mM glucose, 100 nM insulin, 10 μM glucagon", "description": "Transient transfections were performed using Lipofect AMINE (Canadian Life Technologies. Burlington, ON, Canada). Seventy to 80% confluent cells were transfected with 1 μg of the reporter plasmid pCAT, pMUCI-1583 CAT, pHexII4557 CAT, or pRSV CAT (Rous sarcoma virus long terminal repeat promoter) (ATCC). One microgram of pSV2-Pgalactosidase (Promega) was cotransfected as an internal control for variations in transfection efficiency in serum-free Dulbecco's modified Eagle's medium (DMEM). The medium was replaced with fresh growth medium after 6 hr. In promoter regulation experiments, the cells were transfected in RPMI 1640 glucose-deficient medium. Six hours after transfection, the medium was replaced with RPMI 1640 glucose-deficient medium supplemented with 100 nM bovine insulin. 25 mM glucose, or 10 μM glucagon (Sigma Aldrich Canada. Oakville. ON, Canada) or a combination of insulin and glucose, supplemented with 1 mM sodium pyruvate and 100 μM glucose. […] The protein concentration of the extracts was measured using the Bradford protein assay from Bio-Rad (Mississauga, ON. Canada) and equal amounts were assayed in the chloramphenicol acetyltransferase (CAT) and β-galactosidase assays, which were carried out as described by the manufacturer (Promega). Percent acetylation was measured using the Bio-Rad Gelscan Phos-phoimager and the Molecular Analyst software program. […]"}, "HK II mRNA in NHBECs": {"tested_on": "HK II mRNA in NHBECs", "experiment": "Ribonuclease protection assay of HK II mRNA", "type": "cell-based, human", "details": "25 mM glucose, 100 nM insulin, 10 μM glucagon, 12 hr", "method": "For regulation studies, cells were grown to subconfluence in 75-cm^2 flasks, starved in serum-free, glucose-deficient RPMI 1640 medium (Canadian Life Technologies) for 18 hr, and induced in 25 mM glucose, 100 nM insulin, and 10 μM glucagon (Sigma Aldrich Canada) for 12 hr. RNA was extracted from cells using RNAzol (Tel-Test, Friendswood, Tex.) as described by the manufacturer. Contaminating DNA was digested with 5-10 units of DNase I (Pharmacia Biotech) in 10 mM MgCl2, 1 mM dithiothreitol (DTT), […] of RNA Guard (Pharmacia Biotech), 50-80 μl of total RNA at 1 μg/μl for 30 min at 37° C., followed by precipitation of total RNA.\nThe HK II probe (0.1 fmol) and the human β-actin probe (2 fmol) were simultaneously hybridized to 30 μg of total RNA using the RPA II kit (Ambion, Austin, Tex.) according to the manufacturer recommendations. Probes were prepared by in vitro transcription using the MAXIscript kit (Ambion) and [α-^32P]UTP (6000 Ci/mmol, 40 mCi/ml). HK II (nucleotides 1500 to 1803 of HK II cDNA; GenBank Z-16376) was inserted in the pDP18-T7/T3 vector (Ambion). The template was cut with KpnI at the 5′ end of the insert and transcribed toward that site from the T7 promoter to produce a 430-bp transcript. The HK II-protected fragment is 303 bp. […] Quantitation was performed using the NIH Image 1.67b densitometry software."}},
  "data": [
    {"compound": "Nc1nc(O)c2ncn(COC(CO)CO)c2n1", "note": "[GCV, gancyclovir]", "values": [
      {"measurement": "cell survival less than control cells", "setting": "[1]", "value": 50, "unit": "%"}
    ]},
    {"compound": "glucagon: regulator of glucose metabolism, physiological inhibitor of Hex II", "values": [
      {"measurement": "effect on Hex II promoter activation", "setting": "[2]", "value": "did not inhibit promoter activation"},
      {"measurement": "HK II promoter activation, increase over basal", "setting": "[3]", "value": "did not lead to significant differences"},
      {"measurement": "HK II mRNA level relative to basal", "setting": "HK II mRNA in NHBECs", "value": "repressed HK II expression"}
    ]},
    {"compound": "insulin: bovine insulin, regulator of glucose metabolism", "values": [
      {"measurement": "HK II promoter activation, increase over basal", "setting": "[3]", "value": "did not lead to significant differences"}
    ]}
  ]
}
